The source of these data is PubChem BioAssay AID1259411 (Chemical Carcinogenesis Research Information System (CCRIS), 2018).

Calls of active or inactive are those of the source. No rule for the calls is given here.

The test system of the data set is rodent carcinogenicity bioassays, tumor incidence. Briefly: CCRIS carcinogenicity studies. An outline of the steps:
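NCI-built, expert-reviewed records of carcinogenicity and related test outcomes (mutagenicity, tumor promotion/inhibition) compiled from published and report sources, historical span 1985-2011, not updated.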

For `c1ccoc1`, the carcinogen call (Species: MOUSE, Strain/Sex: B6C3F1/FEMALE, Route: GAVAGE, Dose: 0, 8, 15 MG/KG IN CORN OIL 5 D/WK FOR 104 WK (STUDY DURATION: 105 WK), Dose: 0, 8, 15 MG/KG IN CORN OIL 5 D/WK FOR 104 WK (STUDY DURATION: 105 WK), Tumor Site: Type of Lesion: ADRENAL MEDULLA: BENIGN PHEOCHROMOCYTOMA, LIVER: HEPATOCELLULAR ADENOMA, HEPATOCELLULAR CARCINOMA) was “active; positive”; the carcinogen call (Species: MOUSE, Strain/Sex: B6C3F1/MALE, Route: GAVAGE, Dose: 0, 8, 15 MG/KG IN CORN OIL 5 D/WK FOR 104 WK (STUDY DURATION: 105 WK), Dose: 0, 8, 15 MG/KG IN CORN OIL 5 D/WK FOR 104 WK (STUDY DURATION: 105 WK), Tumor Site: Type of Lesion: ADRENAL MEDULLA: BENIGN PHEOCHROMOCYTOMA, LIVER: HEPATOCELLULAR ADENOMA, HEPATOCELLULAR CARCINOMA) was “active; positive”; the carcinogen call (Species: MOUSE, Strain/Sex: B6C3F1/MALE, Route: INTRAPERITONEAL, Dose: 0, 200 MG/KG BW ONCE EACH ON POSTNATAL DAYS 3, 6, 9, 12, 15 AND 18 (STUDY DURATION: 95 WK), Tumor Site: Type of Lesion: LIVER: ADENOMA OR CARCINOMA) is “active; positive”; the carcinogen call (Species: MOUSE, Strain/Sex: B6C3F1/MALE, Route: INTRAPERITONEAL, Dose: 0, 400 MG/KG BW ONCE ON POSTNATAL DAY 15 (STUDY DURATION: 95 WK)) was “inactive; negative”; the carcinogen call (Species: RAT, Strain/Sex: B6C3F1/FEMALE, Route: GAVAGE, Dose: 0, 2, 4, 8 MG/KG IN CORN OIL 5 D/WK FOR 103 WK (STUDY DURATION: 104 WK), Dose: 0, 2, 4, 8 MG/KG IN CORN OIL 5 D/WK FOR 103 WK (STUDY DURATION: 104 WK), Tumor Site: Type of Lesion: LIVER: CHOLANGIOCARCINOMA, HEPATOCELLULAR ADENOMA OR CARCINOMA, HEMATOPOIETIC SYSTEM: MONONUCLEAR CELL LEUKEMIA) was “active; positive”; the carcinogen call (Species: RAT, Strain/Sex: F344/MALE, Route: GAVAGE, Dose: 0, 2, 4, 8 MG/KG IN CORN OIL 5 D/WK FOR 103 WK (STUDY DURATION: 104 WK), Dose: 0, 2, 4, 8 MG/KG IN CORN OIL 5 D/WK FOR 103 WK (STUDY DURATION: 104 WK), Tumor Site: Type of Lesion: LIVER:CHOLANGIOCARCINOMA, HEPATOCELLULAR ADENOMA, HEPATOCELLULAR CARCINOMA, HEMATOPOIETIC SYSTEM: MONONUCLEAR CELL LEUKE) was “active; positive”.

`C[C@H]1C[C@]2(C)[C@@H](O)CC[C@H]2[C@@H]2CCc3cc(O)ccc3[C@H]21`: the carcinogen call (Species: HAMSTER, Strain/Sex: SYRIAN/MALE, Route: SUBCUTANEOUS IMPLANT, Dose: 0, 20 MG IN PELLETS IMPLANTED EVERY 2.5 MO FOR 9 MO (STUDY DURATION: 9 MO)) is “inactive; negative”.

Turning to `CCC(CC)[N+](=O)[O-]`, the carcinogen call (Species: RAT, Strain/Sex: F344/MALE, Route: GAVAGE, Dose: 0, 2 MMOL/KG BW 1/WK FOR 12 WK THEN 1 MMOL/KG FOR 38 WK (STUDY DURATION: 83 WK), Tumor Site: Type of Lesion: LIVER: CARCINOMA) was “active; positive”.

Turning to `CCN(CC)CC#CC(C)(C)OC(=O)C(O)(c1ccccc1)C1CCCCC1` (centres undefined), the carcinogen call is “inactive; negative” (Species: MOUSE, Strain/Sex: B6C3F1/FEMALE, Route: ORAL, Dose: 0, 30, 100, 300 MG/KG/D IN DIET FOR 78 WK (STUDY DURATION: 78 WK), Dose: 0, 30, 100, 300 MG/KG/D IN DIET FOR 78 WK (STUDY DURATION: 78 WK)); “inactive; negative” (Species: MOUSE, Strain/Sex: B6C3F1/MALE, Route: ORAL, Dose: 0, 30, 100, 300 MG/KG/D IN DIET FOR 78 WK (STUDY DURATION: 78 WK), Dose: 0, 30, 100, 300 MG/KG/D IN DIET FOR 78 WK (STUDY DURATION: 78 WK)); “inactive; negative” (Species: RAT, Strain/Sex: F344/FEMALE, Route: ORAL, Dose: 0, 30, 100 MG/KG/D IN DIET FOR 2 YR (STUDY DURATION: 2 YR), Dose: 0, 30, 100 MG/KG/D IN DIET FOR 2 YR (STUDY DURATION: 2 YR)); “inactive; negative” (Species: RAT, Strain/Sex: F344/MALE, Route: ORAL, Dose: 0, 10, 30, 100 MG/KG/D IN DIET FOR 2 YR (STUDY DURATION: 2 YR), Dose: 0, 10, 30, 100 MG/KG/D IN DIET FOR 2 YR (STUDY DURATION: 2 YR)).

`CCO`: the carcinogen call (Species: MOUSE, Strain/Sex: B6C3F1/FEMALE (48/GROUP), Route: ORAL, Dose: 2.5% OR 5% IN DRINKING WATER (STUDY DURATION: 2 YRS)) is “inactive; negative; inadequate study to determine carcinogenic activity”; the carcinogen call (Species: MOUSE, Strain/Sex: B6C3F1/MALE (48/GROUP), Route: ORAL, Dose: 2.5% OR 5% IN DRINKING WATER (STUDY DURATION: 2 YRS), Tumor Site: Type of Lesion: LIVER: HEPATOCELLULAR ADENOMA OR CARCINOMA (COMBINED)) was “active; positive; inadequate study to determine carcinogenic activity”; the carcinogen call (Species: RAT, Strain/Sex: SPRAGUE-DAWLEY/FEMALE, Route: ORAL, Dose: 0, 1, 3% IN LIQUID DIET FOR 104 WK (STUDY DURATION: 120 WK), Dose: 0, 1, 3% IN LIQUID DIET FOR 104 WK (STUDY DURATION: 120 WK)) was “inactive; negative”; the carcinogen call (Species: RAT, Strain/Sex: SPRAGUE-DAWLEY/MALE, Route: ORAL, Dose: 0, 1, 3% IN LIQUID DIET FOR 104 WK (STUDY DURATION: 120 WK), Dose: 0, 1, 3% IN LIQUID DIET FOR 104 WK (STUDY DURATION: 120 WK)) was “inactive; negative”.

On to `Nc1nc(-c2ccc([N+](=O)[O-])o2)cs1`, for which the carcinogen call by setting is: (Species: RAT, Strain/Sex: F344/FEMALE, Route: ORAL, Dose: 0.166% IN DIET FOR 52 WK, Tumor Site: Type of Lesion: FORESTOMACH: PAPILLOMA, CARCINOMA, URINARY BLADDER: PAPILLOMA, CARCINOMA) “active; positive”; (Species: RAT, Strain/Sex: F344/MALE,FEMALE, Route: SUBCUTANEOUS, Dose: 10 MG/KG IN DMSO:WATER 1/WK FOR 8 WK, THEN 1.4 MG/RAT 1/WK FOR 46 WK, Tumor Site: Type of Lesion: INJECTION SITE: SARCOMA) “active; positive”.

For `CCCCCCCCCN(C)N=O`, the carcinogen call (Species: RAT, Strain/Sex: F344/MALE, Route: GAVAGE, Dose: 0, 100 MG/ML IN CORN OIL 2/WK FOR 30 WK, STUDY DURATION: 60 WK, Dose: 0, 100 MG/ML IN CORN OIL 2/WK FOR 30 WK, STUDY DURATION: 60 WK, Tumor Site: Type of Lesion: LUNG: ADENOCARCINOMA, NASAL CAVITY: CARCINOMA, PAPILLOMA, LIVER: CHOLANGIOCARCINOMA, HEPATOCELLULAR TUMOR, Tumor Site: Type of Lesion: LUNG: ADENOCARCINOMA, NASAL CAVITY: CARCINOMA, PAPILLOMA, LIVER: CHOLANGIOCARCINOMA, HEPATOCELLULAR TUMOR) was “active; positive”.
